Converted amounts (≈) assume the structure as drawn. The source made the active and inactive calls. The calls are words filed in the database; no cut-off is given here.
What was measured:
Staphylococcus aureus [1] = experiment: Drug resistance, ratio of MIC for methicillin-resistant Staphylococcus aureus ATCC 43300 after 21 passages to MIC for methicillin-resistant Staphylococcus aureus ATCC 43300 during first exposure; assay type: functional
Staphylococcus aureus [2] = experiment: Antibacterial activity against methicillin resistant Staphylococcus aureus; assay type: functional
Staphylococcus aureus [3] = experiment: Antibacterial activity against methicillin-resistant Staphylococcus aureus ATCC 43300 assessed as post antibiotic effect at 1 times MIC measured after 1 hr; assay type: functional
Staphylococcus aureus [4] = experiment: Antibacterial activity against Staphylococcus aureus ATCC 25923 assessed as inhibition of visible bacterial growth incubated for 24 hrs by CLSI based broth microdilution method; assay type: functional
Streptococcus agalactiae = experiment: Antibacterial activity against Streptococcus agalactiae assessed as inhibition of visible bacterial growth incubated for 24 hrs by CLSI based broth microdilution method; assay type: functional
Staphylococcus aureus [5] = experiment: Antibacterial activity against methicillin-resistant Staphylococcus aureus ATCC 43300 assessed as post antibiotic effect at 8 times MIC measured after 1 hr; assay type: functional
Mycoplasma = experiment: Antibacterial activity against Mycoplasma F3 assessed as inhibition of visible bacterial growth incubated for 24 hrs by CLSI based broth microdilution method; assay type: functional
Staphylococcus aureus [6] = experiment: Bactericidal activity against methicillin-resistant Staphylococcus aureus ATCC 43300 assessed as increase in colony forming unit count at 1 times MIC incubated after 8 hrs by time-kill assay; assay type: functional, organism-based
Staphylococcus aureus [7] = experiment: Antibacterial activity against methicillin-resistant Staphylococcus aureus ATCC 43300 assessed as reduction in bacterial proteins level at 0.5 to 2 microg/ml measured for 4 hrs; assay type: functional, organism-based; conditions: dose 0.5-2 µg/ml
Staphylococcus aureus [8] = experiment: Bactericidal activity against methicillin-resistant Staphylococcus aureus ATCC 43300 at 1 times MIC incubated upto 24 hrs by time-kill assay; assay type: functional, organism-based
Staphylococcus aureus [9] = experiment: Antibacterial activity against methicillin-resistant Staphylococcus aureus ATCC 43300 assessed as post antibiotic effect at 2 times MIC measured after 1 hr; assay type: functional
Staphylococcus aureus [10] = experiment: (§1) Antibacterial efficacy against methicillin-resistant Staphylococcus aureus ATCC 43300 infected in cyclophosphamide-induced neutropenic systemic infection Kunming mouse model assessed as reduction in bacterial load in kidney at 20 mg/kg, iv pretreated with cyclophosphamide for 1 hr followed by compound addition and measured after 5 days; assay type: functional, organism-based; conditions: time 5.0 day
Staphylococcus aureus [11] = experiment: Antibacterial activity against methicillin-resistant Staphylococcus aureus ATCC 43300 assessed as post antibiotic effect at 4 times MIC measured after 1 hr; assay type: functional
Enterococcus faecalis = experiment: Antibacterial activity against Enterococcus faecalis assessed as inhibition of visible bacterial growth incubated for 24 hrs by CLSI based broth microdilution method; assay type: functional
Staphylococcus aureus [12] = experiment: Antibacterial activity against methicillin-resistant Staphylococcus aureus ATCC 43300 assessed as inhibition of visible bacterial growth incubated for 24 hrs by CLSI based broth microdilution method; assay type: functional
Staphylococcus aureus [13] = experiment: as §1, with “alveolar epithelial cell necrosis” for “reduction in bacterial load in kidney”, “days by light microscopic analysis” for “days”; assay type: functional, organism-based; conditions: time 5.0 day
Escherichia coli = experiment: Antibacterial activity against Escherichia coli ATCC 25922 assessed as inhibition of visible bacterial growth incubated for 24 hrs by CLSI based broth microdilution method; assay type: functional
[14] = Cytotoxicity against human HEK293T cells assessed as survival rate incubated for 24 hrs by CCK-8 assay; assay type: toxicity, cell-based, HEK-293T
Staphylococcus aureus [15] = experiment: as §1, with “liver” for “kidney”; assay type: functional; conditions: time 5 day
Staphylococcus aureus [16] = experiment: as §1, with “lung” for “kidney”; assay type: functional; conditions: time 5 day
[17] = Cytotoxicity against human HEK293T cells assessed as survival rate at 200 micromol/L incubated for 24 hrs by CCK-8 assay relative to control; assay type: toxicity, cell-based, HEK-293T; conditions: dose 200 µmol/L, read-out: Survival
HepG2 [18] = experiment: Cytotoxicity against human HepG2 cells assessed as survival rate incubated for 24 hrs by CCK-8 assay; assay type: functional, cell-based; conditions: HepG2, 24 h
HepG2 [19] = experiment: Cytotoxicity against human HepG2 cells assessed as survival rate at 200 micromol/L incubated for 24 hrs by CCK-8 assay relative to control; assay type: functional; conditions: HepG2, 24 h, dose 200 µmol/L, read-out: Survival

SMILES: C=C[C@]1(C)C[C@@H](OC(=O)CSCCN(CC)CC)[C@]2(C)[C@H](C)CC[C@]3(CCC(=O)[C@H]32)[C@@H](C)[C@@H]1O [TIAMULIN]
- Ratio (Staphylococcus aureus [1]): 64
- MIC (Staphylococcus aureus [2]): 0.5 µg/mL (≈ 1.01 µM)
- PAE (Staphylococcus aureus [3]): 0.42 h
- MIC (Staphylococcus aureus [4]): 0.25 µg/mL (≈ 0.506 µM)
- MIC (Streptococcus agalactiae): 0.125 µg/mL (≈ 0.253 µM)
- PAE (Staphylococcus aureus [5]): 2.2 h
- MIC (Mycoplasma): 0.008 µg/mL (≈ 0.0162 µM)
- Activity (Staphylococcus aureus [6]): Active
- Activity (Staphylococcus aureus [7]): Active
- Activity (Staphylococcus aureus [8]): Active
- PAE (Staphylococcus aureus [9]): 0.91 h
- Activity (Staphylococcus aureus [10]): inactive
- PAE (Staphylococcus aureus [11]): 1.54 h
- MIC (Enterococcus faecalis): > 32 µg/mL
- MIC (Staphylococcus aureus [12]): 0.25 µg/mL (≈ 0.506 µM)
- Activity (Staphylococcus aureus [13]): Active
- MIC (Escherichia coli): > 32 µg/mL

SMILES: C=C[C@]1(C)C[C@@H](OC(=O)CSC(C)(C)CNC(=O)[C@H](N)C(C)C)[C@]2(C)[C@H](C)CC[C@]3(CCC(=O)[C@H]32)[C@@H](C)[C@@H]1O [VALNEMULIN]
- IC50 at 24 h [14]: 52 µM
- Activity (Staphylococcus aureus [15]): 0.71 log10CFU
- Activity (Staphylococcus aureus [16]): 0.98 log10CFU
- viability at 24 h, 200 µM [17]: 16%
- IC50 (HepG2 [18]): 102 µM
- Activity (Staphylococcus aureus [10]): inactive
- Activity (Staphylococcus aureus [13]): inactive
- viability at 200 µM (HepG2 [19]): 12%

SMILES: C=C[C@]1(C)C[C@@H](OC(=O)CSc2nc(OC(=O)c3cccc(Cl)c3)cs2)[C@]2(C)[C@H](C)CC[C@]3(CCC(=O)[C@H]32)[C@@H](C)[C@@H]1O
- MIC (Staphylococcus aureus [4]): 0.25 µg/mL (≈ 0.395 µM)
- MIC (Streptococcus agalactiae): 0.063 µg/mL (≈ 0.0996 µM)
- MIC (Mycoplasma): 0.25 µg/mL (≈ 0.395 µM)
- MIC (Enterococcus faecalis): > 32 µg/mL
- MIC (Staphylococcus aureus [12]): 1 µg/mL (≈ 1.58 µM)
- MIC (Escherichia coli): > 32 µg/mL

SMILES: C=C[C@]1(C)C[C@@H](OC(=O)CSc2nc(OC(=O)c3cccs3)cs2)[C@]2(C)[C@H](C)CC[C@]3(CCC(=O)[C@H]32)[C@@H](C)[C@@H]1O
- MIC (Staphylococcus aureus [4]): 0.5 µg/mL (≈ 0.828 µM)
- MIC (Streptococcus agalactiae): 0.25 µg/mL (≈ 0.414 µM)
- MIC (Mycoplasma): 0.25 µg/mL (≈ 0.414 µM)
- MIC (Enterococcus faecalis): > 32 µg/mL
- MIC (Staphylococcus aureus [12]): 1 µg/mL (≈ 1.66 µM)
- MIC (Escherichia coli): > 32 µg/mL

SMILES: C=C[C@]1(C)C[C@@H](OC(=O)CSc2nc(OC(=O)c3c(Cl)cc(Cl)cc3Cl)cs2)[C@]2(C)[C@H](C)CC[C@]3(CCC(=O)[C@H]32)[C@@H](C)[C@@H]1O
- MIC (Staphylococcus aureus [4]): 16 µg/mL (≈ 22.8 µM)
- MIC (Streptococcus agalactiae): 0.5 µg/mL (≈ 0.713 µM)
- MIC (Mycoplasma): 1 µg/mL (≈ 1.43 µM)
- MIC (Enterococcus faecalis): > 32 µg/mL
- MIC (Staphylococcus aureus [12]): 16 µg/mL (≈ 22.8 µM)
- MIC (Escherichia coli): > 32 µg/mL

SMILES: C=C[C@]1(C)C[C@@H](OC(=O)CSc2nc(OC(=O)c3ccc(F)cc3)cs2)[C@]2(C)[C@H](C)CC[C@]3(CCC(=O)[C@H]32)[C@@H](C)[C@@H]1O
- MIC (Staphylococcus aureus [4]): 0.5 µg/mL (≈ 0.812 µM)
- MIC (Streptococcus agalactiae): 0.125 µg/mL (≈ 0.203 µM)
- MIC (Mycoplasma): 0.25 µg/mL (≈ 0.406 µM)
- MIC (Enterococcus faecalis): > 32 µg/mL
- MIC (Staphylococcus aureus [12]): 0.5 µg/mL (≈ 0.812 µM)
- MIC (Escherichia coli): > 32 µg/mL

SMILES: C=C[C@]1(C)C[C@@H](OC(=O)CSC2=NC(=O)CS2)[C@]2(C)[C@H](C)CC[C@]3(CCC(=O)[C@H]32)[C@@H](C)[C@@H]1O
- MIC (Staphylococcus aureus [4]): 0.5 µg/mL (≈ 1.01 µM)
- MIC (Streptococcus agalactiae): 0.125 µg/mL (≈ 0.253 µM)
- MIC (Mycoplasma): 0.5 µg/mL (≈ 1.01 µM)
- MIC (Enterococcus faecalis): > 32 µg/mL
- MIC (Staphylococcus aureus [12]): 1 µg/mL (≈ 2.03 µM)
- MIC (Escherichia coli): > 32 µg/mL

SMILES: C=C[C@]1(C)C[C@@H](OC(=O)CSc2nc(OC(=O)c3cccc(F)c3)cs2)[C@]2(C)[C@H](C)CC[C@]3(CCC(=O)[C@H]32)[C@@H](C)[C@@H]1O
- MIC (Staphylococcus aureus [4]): 2 µg/mL (≈ 3.25 µM)
- MIC (Streptococcus agalactiae): 0.125 µg/mL (≈ 0.203 µM)
- MIC (Mycoplasma): 0.5 µg/mL (≈ 0.812 µM)
- MIC (Enterococcus faecalis): > 32 µg/mL
- MIC (Staphylococcus aureus [12]): 0.5 µg/mL (≈ 0.812 µM)
- MIC (Escherichia coli): > 32 µg/mL

— ChEMBL document CHEMBL6103592, “Discovery of novel thiazole-pleuromutilin derivatives with potent antibacterial activity” (Eur J Med Chem, 2025)
